Here are results for 13 compounds from patent publication US5811452A, “Taxoid reversal agents for drug-resistance in cancer chemotherapy and pharmaceutical compositions thereof” (The Research Foundation of State University of New York, priority 1997, dated 1998).

Read-outs that look alike come from different tables or passages of the source.

Test [1] deals with drug-resistant breast cancer cells MCF7-R. The experiment in a line: MDR reversal: cytostatic activity in combination with paclitaxel or doxorubicin. It is filed as cell-based, human. The settings on record: for % IC50 reduction (taxoid + Paclitaxel): taxoid 1 μM + paclitaxel.
The next test relates to MCF7 (mammary carcinoma). Put plainly: Cytotoxicity evaluation (cell growth inhibition, SRB, 72 h). It counts as cell-based. The note with it: read-out: IC50, growth of human tumor cell line MCF7 (breast). The procedure:
(§1) Taxoids, thus synthesized, were evaluated for their cytotoxicity against human tumor cell line, A2780 (ovarian carcinoma), A2780-DX5 (ovarian carcinoma resistant to doxorubicin), MCF7 (mammary carcinoma) or MCF7-R (mammary carcinoma cells resistant to doxorubicin), after 72 hours drug exposure according to the methods of Skehon, et al., "J. Nat. Cancer Inst. 82, 1107, 1990". […] Lower numbers indicate higher potency. The data represent the means values of at least three separate experiments. Lower numbers indicate stronger cytotoxicity.
(§2) Assessment of cytotoxicity, i.e., cell growth inhibition, was determined according to the methods of Skehan, et al. as discussed in J. Nat. Cancer Inst. 82, 1107, 1990. Briefly, cells were plated between 400 and 1200 cells/well in 96 well plates and incubated at 37° C. for 15-18 h prior to drug addition to allow attachment of cells. Compounds tested were solubilized in 100% DMSO and further diluted in RPMI-1640 containing 10 mM HEPES. Each cell line was treated with 10 concentrations of compounds (5 log range). After a 72 h incubation, […] of ice-cold 50% TCA was added to each well and incubated for 1 h at 4° C. Plates were then washed 5 times with tap water to remove TCA, low-molecular-weight metabolites and serum proteins. Sulforhodamine B (SRB) (0.4%, […]) was added to each well. Following a 5 minute incubation at room temperature, plates were rinsed 5 times with 0.1% acetic acid and air dried. Bound dye was solubilized with 10 mM Tris Base (pH 10.5) for 5 min on a gyratory shaker. Optical density was measured at 570 nm.

The subject of test [2] is MCF7-R (mammary carcinoma cells resistant to doxorubicin). Described as above. The settings on record: read-out: IC50, growth of human tumor cell line MCF7-R (breast). It is filed as cell-based. The procedure:
as §1, §2

Test [3] deals with A2780 (ovarian carcinoma). The test is described as above. The note with it: read-out: IC50, growth of human tumor cell line A2780 (ovarian). It counts as cell-based. As for the experimental part: as §1, §2
Test [4] deals with A2780-DX5 (ovarian carcinoma resistant to doxorubicin). The description is as above. It counts as cell-based. The note with it: read-out: IC50, growth of human tumor cell line A2780-DX5 (ovarian). As for the experimental part: as §1, §2
Another test concerns P-glycoprotein mdr 1a. The settings on record: Taxol-resistant T1 cells; cited from earlier work.
Another test relates to microtubules. The settings on record: cited from earlier work.
The next test concerns J7 (parent) cells. The settings on record: cited from earlier work.
A further test deals with P-glycoprotein mdr 1b. The note with it: cited from earlier work.
The mark [5] stands for this setting: read-out: IC50 (taxoid + Paclitaxel), paclitaxel in presence of taxoid reversing agent (1 μM), 72 h.
Setting [6] is: 72 h exposure, doxorubicin-resistant.
Where [7] appears, read: 72 h exposure, mean of at least three experiments.
Where [8] appears, read: Homo sapiens, MCF7R, without reversing agent, 72 h, read-out: IC50 of anticancer drug alone.
Setting [9] is: Homo sapiens, MCF7, 72 h exposure.
Where [10] appears, read: Homo sapiens, A2780, 72 h exposure, mean of at least three experiments.
[11] abbreviates: Homo sapiens, 72 h exposure, doxorubicin-resistant.
The mark [12] stands for this setting: Homo sapiens, MCF7R, 72 h exposure, doxorubicin-resistant.

In the case of “7,10-Bis[3-(4-benzoylphenyl)prop-2-enoyl]-10-deacetylbaccatin III [SB-RA-4102]”, the results for the IC50 (in test [1] (setting [5]); with MCF7 (mammary carcinoma) (72 h exposure); in test [2] (setting [6])) were 0.0027 µM, above 10 µM and above 10 µM, respectively. Also, in [1] (72 h), the “% IC50 reduction (taxoid + Paclitaxel)” value was found to be 99.7%.
For the compound “7-[3-(2-Naphtyl)propanoyl]-13-acetylbaccatin III [SB-RA-30012]”, the 50% inhibitory concentration (IC50) was 0.0058 µM in [1] (setting [5]), above 10 µM in the test with MCF7 (mammary carcinoma) (72 h exposure) and above 10 µM in [2] (setting [6]). For the same compound, the “% IC50 reduction (taxoid + Paclitaxel)” value in [1] (72 h) is on record as 99.3%.
On to “13-(4-Benzoylcinnamoyl)-7,10-bis(2,2,2-trichloroethoxycarbonyl)baccatin III [SB-RA-110]”, for which the IC50 (in the test with MCF7 (mammary carcinoma) (72 h exposure); in test [3] (setting [7]); in test [4] (setting [6]); in test [2] (setting [6])) was above 10 µM in each case.
Consider `COc1cccc2c1C(=O)c1c(O)c3c(c(O)c1C2=O)C[C@@](O)(C(=O)CO)C[C@@H]3O[C@H]1C[C@H](N)[C@H](O)[C@H](C)O1` [Doxorubicin, reference compound], for which the IC50 in test [1] (setting [8]) is 1.89 µM; in the test with MCF7 (mammary carcinoma) (Homo sapiens, MCF7, 72 h), 0.017 µM; in test [3] (Homo sapiens, A2780, 72 h), 0.005 µM; in test [4] (Homo sapiens, 72 h), 0.357 µM; in [2] (Homo sapiens, MCF7R, 72 h) it was 1.89 µM.
With `CC(=O)O[C@H]1C(=O)[C@@]2(C)[C@H]([C@H](OC(=O)c3ccccc3)[C@]3(O)C[C@H](OC(=O)[C@H](O)[C@@H](NC(=O)c4ccccc4)c4ccccc4)C(C)=C1C3(C)C)[C@]1(OC(C)=O)CO[C@@H]1C[C@@H]2O` [Paclitaxel, reference compound], the IC50 in test [1] (Homo sapiens, MCF7R, read-out: IC50 of paclitaxel, taxoid at 1 or 3 μM (from 860 to 42~1.6)) was 0.86 µM; in test [1] (setting [8]) it was 0.86 µM; with MCF7 (mammary carcinoma) (Homo sapiens, MCF7, 72 h) it was 0.0017 µM; in test [2] (Homo sapiens, MCF7R, 72 h), 0.85 µM.
`CC(=O)O[C@@]12CO[C@@H]1C[C@H](O)[C@@]1(C)C(=O)[C@H](O)C3=C(C)[C@@H](OC(=O)/C=C/c4ccc5ccccc5c4)C[C@@](O)([C@@H](OC(=O)c4ccccc4)[C@H]21)C3(C)C` [SB-RA-2001, 13-[3-(2-Naphthyl)prop-2-enoyl]-10-deacetylbaccatin III]: the IC50 with MCF7 (mammary carcinoma) (72 h exposure) stood at 2 µM; in test [3] (setting [7]) it was 2.6 µM; in [4] (setting [6]), 3.8 µM; in test [2] (setting [6]) it was 5 µM.
On to `CC(=O)O[C@@]12CO[C@@H]1C[C@H](O)[C@@]1(C)C(=O)[C@H](OC(=O)/C=C/c3ccc(C(=O)c4ccccc4)cc3)C3=C(C)[C@@H](O)C[C@@](O)([C@@H](OC(=O)c4ccccc4)[C@H]21)C3(C)C` [SB-RA-4001, 10-[(4-Benzoyl)cinnamoyl]-10-deacetylbaccatin III], for which, in [1] (72 h), the “% IC50 reduction (taxoid + Paclitaxel)” value is 95%. For the same compound, the IC50 in the test on MCF7 (mammary carcinoma) (setting [9]) was 8.5 µM; in [3] (setting [10]), 8 µM; in test [4] (setting [11]), 10 µM; in [2] (setting [12]), above 10 µM.
Consider `CC(=O)O[C@H]1C(=O)[C@]2(C)[C@@H](OC(=O)c3ccc4ccccc4c3)C[C@H]3OC[C@@]3(OC(C)=O)[C@H]2[C@H](OC(=O)c2ccccc2)[C@]2(O)C[C@H](O)C(C)=C1C2(C)C` [SB-RA-30001, 7-(Naphthalene-2-carbonyl)baccatin III], for which the “% IC50 reduction (taxoid + Paclitaxel)” value in [1] (72 h) was 97.5%. For the same compound, the IC50 worked out at 5.3 µM in the test with MCF7 (mammary carcinoma) (setting [9]) and 11 µM in test [2] (setting [12]).
With `CC(=O)O[C@H]1C(=O)[C@]2(C)[C@@H](OC(=O)/C=C/c3ccc4ccccc4c3)C[C@H]3OC[C@@]3(OC(C)=O)[C@H]2[C@H](OC(=O)c2ccccc2)[C@]2(O)C[C@H](O)C(C)=C1C2(C)C` [SB-RA-30011, 7-[3-(2-naphthyl)-2-propenoyl]baccatin III], the “enhancement of the tumor growth inhibitory activity of doxorubicin” value in [1] (1 μM taxoid) came to 92%. For the same compound, in [1] (taxoid 1 μM + doxorubicin, 72 h), the “% IC50 reduction (taxoid + Doxorubicin)” value was found to be 92%. Also, the “% IC50 reduction (taxoid + Paclitaxel)” value in test [1] (72 h) is given as 96%. The concentration for half-maximal inhibition (IC50) in the test with MCF7 (mammary carcinoma) (setting [9]) turned out to be 4.7 µM; in test [3] (setting [10]), 6.3 µM; in test [4] (setting [11]), 6.8 µM; in test [2] (setting [12]), 8 µM.
Consider `CC(=O)O[C@H]1C(=O)[C@]2(C)[C@@H](OC(=O)CCc3ccc4ccccc4c3)C[C@H]3OC[C@@]3(OC(C)=O)[C@H]2[C@H](OC(=O)c2ccccc2)[C@]2(O)C[C@H](O)C(C)=C1C2(C)C` [SB-RA-30021, 7-[3-(2-Naphthyl)propanoyl]baccatin III], for which the “% IC50 reduction (taxoid + Paclitaxel)” value in test [1] (72 h) was determined as 96%. For the same compound, the IC50 with MCF7 (mammary carcinoma) (setting [9]) worked out at 4.9 µM; in test [3] (setting [10]) it was 5.7 µM; in test [4] (setting [11]) it was 5.3 µM; in [2] (setting [12]), 5 µM.
With `CC(=O)O[C@H]1C(=O)[C@]2(C)[C@@H](OC(=O)/C=C/c3ccc(C(=O)c4ccccc4)cc3)C[C@H]3OC[C@@]3(OC(C)=O)[C@H]2[C@H](OC(=O)c2ccccc2)[C@]2(O)C[C@H](O)C(C)=C1C2(C)C` [SB-RA-31011, 7-[4-Benzoylcinnamoyl]baccatin III], in test [1] (72 h), the “% IC50 reduction (taxoid + Paclitaxel)” value is reported as 99.8%. Also, the IC50 in the test on MCF7 (mammary carcinoma) (setting [9]) is 11 µM; in test [2] (setting [12]), above 10 µM.
Taken in the same sequence, the figures for `CC(=O)O[C@H]1C(=O)[C@]2(C)[C@@H](OC(=O)/C=C/c3ccc(C(=O)c4ccccc4)cc3)C[C@H]3OC[C@@]3(OC(C)=O)[C@H]2[C@H](OC(=O)c2ccccc2)[C@]2(O)C[C@H](OC(C)=O)C(C)=C1C2(C)C` [SB-RA-31012] were 99.7%, above 10 µM and above 10 µM.
As for `CC(=O)O[C@H]1C(=O)[C@@]2(C)[C@H]([C@H](OC(=O)c3ccccc3)[C@]3(O)C[C@H](OC(=O)[C@H](O)[C@@H](NC(=O)CCc4ccc(C(=O)c5ccccc5)cc4)c4ccccc4)C(C)=C1C3(C)C)[C@]1(OC(C)=O)CO[C@@H]1C[C@@H]2O` [SB-T-5101], the “binding to P-glycoprotein mdr 1a” value in the test with P-glycoprotein mdr 1a is “binds to both mdr 1a (major) and mdr 1b (minor) in T1 cells”. Besides, in the test on microtubules, the binding to microtubules entry is “binds to microtubules as expected”. In addition, in the test with J7 (parent) cells, the “photoaffinity labeling of non-drug resistant cells” value was “no photoaffinity labeling is observed”. The “binding to P-glycoprotein mdr 1b” value with P-glycoprotein mdr 1b (Taxol-resistant T1 cells) was “binds to both mdr 1a (major) and mdr 1b (minor) in T1 cells”; in the test with P-glycoprotein mdr 1b (vinblastine-resistant V1 cells), “only binds to mdr 1b in V1 cells”.
